# Results reported in patent US20130252813A1, “Herbicidal Compositions for Tolerant or Resistant Sugar Beet Crops” (Bayer CropScience AG, priority 1998, published 2013).
# Structures can show the parent of a compound that is named as a salt.
# Key:
# Type in all cases: in vivo
# Setaria viridis [1] = assay: Herbicidal action in sugar beet - field trial (Table 2); conditions: application in 2-4-leaf stage, scoring 3 weeks after application
# Description: (§1) Transgenic sugar beet plants with resistance to one or more herbicides (A) were grown together with typical weed plants in the open in 2×5 m plots under natural field conditions; alternatively, the weed population established naturally while the sugar beet plants grew. Treatment with the compositions according to the invention and, for control purposes, with separate application of the active ingredients of the components alone, was carried out under standard conditions with a plot sprayer at an application rate of 200-300 liters of water per hectare in parallel trials in accordance with the scheme of Table 1, i.e. pre-sowing/pre-emergence, […] or post-emergence at the early, medium or late stage.
# (§2) […] Damage and development of all aerial plant organs was recorded. The scoring was done using a percentage scale (100% activity=all plants dead; 50% activity=50% of the plants and green plant organs dead; 0% activity=no discernible effect=like control plot). The score values of in each case 4 plots were averaged.
# transgenic sugar beet [2] = assay: Damage to transgenic sugar beet - field trial (Table 2); conditions: application in 2-4-leaf stage
# Description: as §1
# (§3) At 2, 4, 6 and 8 week intervals after application, the herbicidal activity of the active ingredients or active ingredient mixtures were scored visually by comparing the treated plots with untreated control plots. Damage and development of all aerial plant organs was recorded. The scoring was done using a percentage scale (100% activity=all plants dead; 50% activity=50% of the plants and green plant organs dead; 0% activity=no discernible effect=like control plot). The score values of in each case 4 plots were averaged.
# Galium aparine [3] = assay: Herbicidal action in sugar beet crop (greenhouse experiment, Table 3); conditions: application in the 4-5-leaf stage, scoring 3 weeks after application
# From the text: Seeds or rhizomes of monocotyledonous and dicotyledonous weeds are placed in sandy loam soil in cardboard pots, covered with soil and grown in the greenhouse under good growth conditions. […] The compositions according to the
# Invention, which are formulated as wettable powders or as emulsion concentrates, are sprayed at various dosages onto the green plant organs at an application rate of 600 to 800 l of water per ha (converted). After the experimental plants have remained in the greenhouse for approx. 3 to 4 weeks under optimal growth conditions, the effect of the preparations is scored visually in comparison with untreated controls. The compositions according to the invention also have a good herbicidal activity against a broad spectrum of economically Important grass weeds and broad-leaved weeds when applied post-emergence.
# transgenic sugar beet [4] = assay: Damage to transgenic sugar beet (greenhouse experiment, Table 3); conditions: greenhouse Table 3, application in the 4-5-leaf stage
# Echinochloa crus-galli = assay: Herbicidal action and selectivity in sugar beet crop (field trial, Table 4); conditions: application in 3-leaf stage, scoring 4 weeks after application
# Description: as §1, §3
# transgenic sugar beet [5] = assay: Damage to transgenic sugar beet (field trial, Table 4); conditions: application in 3-leaf stage
# Description: as §1, §3
# Avena fatua = assay: Herbicidal action and selectivity in sugar beet crop (field trial, Table 5); conditions: application in the 3-5-leaf stage, scoring 4 weeks after application
# Description: as §1, §3
# transgenic sugar beet [6] = assay: Damage to transgenic sugar beet (field trial, Table 5); conditions: application in the 3-5-leaf stage
# Description: as §1, §3
# Galium aparine [7] = assay: Herbicidal action (field trial, Table 6); conditions: application in the 3-5-leaf stage, scoring 4 weeks after application
# Description: as §1, §3
# Kochia scoparia = assay: Herbicidal action (field trial, Table 6); conditions: application in the 3-5-leaf stage, scoring 4 weeks after application
# Description: as §1, §3
# Amaranthus retroflexus = assay: Herbicidal action (field trial, sequential treatment, Table 8); conditions: dose 200 g A.S./ha post-emergence at the 2-3-leaf stage; scorings 22 days after application
# Description: as §1, §2
# Setaria viridis [8] = assay: as above; conditions: dose 200 g A.S./ha post-emergence at the 2-3-leaf stage; scorings 22 days after application
# Description: as §1, §2
compound,measurement,setting,value
"CP(=O)(O)CCC(N)C(=O)O (stereo not shown) [(A1.2), glufosinate monoammonium salt]",Herbicidal action in % against Setaria viridis,Setaria viridis [1]; dose 37.5 g A.S./ha,35%
same,Herbicidal action in % against Setaria viridis,Setaria viridis [1]; dose 75 g A.S./ha,85%
same,Herbicidal action in % against Setaria viridis,Setaria viridis [1]; dose 150 g A.S./ha,95%
same,Herbicidal action in % against Setaria viridis,Setaria viridis [1]; dose 300 g A.S./ha,98%
same,Damage to transgenic sugar beet,transgenic sugar beet [2]; dose 37.5 g A.S./ha,0
same,Damage to transgenic sugar beet,transgenic sugar beet [2]; dose 75 g A.S./ha,0
same,Damage to transgenic sugar beet,transgenic sugar beet [2]; dose 150 g A.S./ha,0
same,Damage to transgenic sugar beet,transgenic sugar beet [2]; dose 300 g A.S./ha,0
same,Herbicidal action in % against Galium aparine,Galium aparine [3]; dose 125 g A.S./ha,45%
same,Herbicidal action in % against Galium aparine,Galium aparine [3]; dose 250 g A.S./ha,60%
same,Herbicidal action in % against Galium aparine,Galium aparine [3]; dose 500 g A.S./ha,85%
same,Damage to transgenic sugar beet,transgenic sugar beet [4]; dose 125 g A.S./ha,0
same,Damage to transgenic sugar beet,transgenic sugar beet [4]; dose 250 g A.S./ha,0
same,Damage to transgenic sugar beet,transgenic sugar beet [4]; dose 500 g A.S./ha,0
same,Herbicidal action in % against Echinochloa crus-galli,Echinochloa crus-galli,45%
same,Herbicidal action in % against Echinochloa crus-galli,Echinochloa crus-galli; dose 10 g A.S./ha,60%
same,Herbicidal action in % against Echinochloa crus-galli,Echinochloa crus-galli; dose 65 g A.S./ha,85%
same,Damage to transgenic sugar beet,transgenic sugar beet [5]; dose 0 g A.S./ha,0
same,Damage to transgenic sugar beet,transgenic sugar beet [5]; dose 10 g A.S./ha,0
same,Damage to transgenic sugar beet,transgenic sugar beet [5]; dose 65 g A.S./ha,0
same,Herbicidal action in % against Avena fatua,Avena fatua; dose 150 g A.S./ha,30%
same,Herbicidal action in % against Avena fatua,Avena fatua; dose 300 g A.S./ha,65%
same,Herbicidal action in % against Avena fatua,Avena fatua; dose 600 g A.S./ha,95%
same,Damage to transgenic sugar beet,transgenic sugar beet [6]; dose 150 g A.S./ha,0
same,Damage to transgenic sugar beet,transgenic sugar beet [6]; dose 300 g A.S./ha,0
same,Damage to transgenic sugar beet,transgenic sugar beet [6]; dose 600 g A.S./ha,0
same,Herbicidal action in % against Galium aparine,Galium aparine [7]; dose 250 g A.S./ha,20%
same,Herbicidal action in % against Galium aparine,Galium aparine [7]; dose 300 g A.S./ha,40%
same,Herbicidal action in % against Galium aparine,Galium aparine [7]; dose 600 g A.S./ha,85%
same,Herbicidal action in % against Kochia scoparia,Kochia scoparia; dose 250 g A.S./ha,30%
same,Herbicidal action in % against Kochia scoparia,Kochia scoparia; dose 300 g A.S./ha,52%
same,Herbicidal action in % against Kochia scoparia,Kochia scoparia; dose 600 g A.S./ha,75%
same,Herbicidal action in % against Amaranthus retroflexus,Amaranthus retroflexus,55%
same,Herbicidal action in % against Setaria viridis,Setaria viridis [8],60%
